In patent US20080102120A1, “Solid Pharmaceutical Composition Comprising Valsartan” (priority 2004, published 2008):

Experiment: Particle size of valsartan by laser light scattering (Malvern Mastersizer MS 2000, suspension in vegetable oil)
Assay type: physicochemical
Conditions: for average particle size: Malvern Mastersizer MS 2000 software; for % of particles in the range of 0.02-50 μm: range 0.02-50 μm; for % of particles in the range of 0.02-100 μm: range 0.02-100 μm; for size that 50% of particles were larger than (D50): volume diameter
Excerpt: The term “particle size” as used herein refers to the volume diameter of valsartan particles, as determined by laser light scattering using a Malvern-Mastersizer Apparatus MS 2000. D50 means that 50% of particles (V/V) have a higher volume diameter than the indicated value. The term “valsartan particle” means a particle that contains valsartan or, preferably, a particle that essentially or completely consists of valsartan. The particles to be subjected to the particle size measurement are first suspended in vegetable oil (i.e. sunflower oil) and then subjected to a size determination in a Malvern Mastersizer MS 2000 instrument. Usually, 100-800 mg of substance are dispersed in 5-8 ml of vegetable oil. No solubilizers or surfactants are used. According to manufacturer's information, the Malvern Mastersizers allow for a measurement of particle size distributions in the range of 20 nm to 2000 μm, with a precision of better than 0.5%. Particle sizes are determined by measuring the angular distribution of laser light scattered by a homogeneous suspension of particles. The size distribution is determined from the light scattering data using the theory of light scattering developed by Gustav Mie. The following examples illustrate the invention and are not intended to restrict the scope of the invention in any way. In the following examples, the water content was determined as loss on drying on a Mettler Toledo HR73 halogen moisture analyzer. The particle size was determined in a Malvern Mastersizer MS 2000, using a suspension of valsartan in vegetable oil (sunflower oil of Oljarica Kranj).

| Structure (SMILES) | size that 10% of particles were larger than [μm] | size that 10% of particles were smaller than [μm] | average particle size [μm] | Particle size distribution, Volume % in range 0.01-2 μm [Volume %] | % of particles in the range of 0.02-50 μm [%] | % of particles in the range of 0.02-100 μm [%] | Particle size distribution, Volume % in range 2-5 μm [Volume %] | Particle size distribution, Volume % in range 5-10 μm [Volume %] | Particle size distribution, Volume % in range 10-20 μm [Volume %] | Particle size distribution, Volume % in range 20-50 μm [Volume %] | Particle size distribution, Volume % in range 50-100 μm [Volume %] | Particle size distribution, Volume % in range 100-150 μm [Volume %] | Particle size distribution, Volume % in range 150-800 μm [Volume %] | size that 50% of particles were larger than (D50) [μm] | % of particles in the range of 0.02-56 μm (range 0.02-56 μm as printed) [%] |
| --- | --- | --- | --- | --- | --- | --- | --- | --- | --- | --- | --- | --- | --- | --- | --- |
| CCCCC(=O)N(Cc1ccc(-c2ccccc2-c2nnn[nH]2)cc1)[C@H](C(=O)O)C(C)C [valsartan (A), N-(1-oxopentyl)-N-{4-[2-(1H-tetrazole-5-yl)phenyl]-benzyl}-L-valine] | 304.3 | 10.3 | 123 | 0.9 | 38.1 | 58.1 | 3.3 | 5.5 | 9.3 | 19.1 | 20.0 | 12.4 | 29.4 | 76.6 | – |
| CCCCC(=O)N(Cc1ccc(-c2ccccc2-c2nnn[nH]2)cc1)[C@H](C(=O)O)C(C)C [valsartan (C), N-(1-oxopentyl)-N-{4-[2-(1H-tetrazole-5-yl)phenyl]-benzyl}-L-valine] | 136.2 | 8.2 | 65 | 1.4 | – | 78.5 | 4.8 | 5.7 | 9.4 | 25.9 | 31.3 | 14.1 | 7.3 | 53.4 | 47.2 |
| CCCCC(=O)N(Cc1ccc(-c2ccccc2-c2nnn[nH]2)cc1)[C@H](C(=O)O)C(C)C [valsartan (B), N-(1-oxopentyl)-N-{4-[2-(1H-tetrazole-5-yl)phenyl]-benzyl}-L-valine] | 460.8 | 34.7 | 219 | 0.7 | 15.0 | 30.0 | 1.2 | 1.0 | 2.6 | 9.5 | 15.0 | 13.1 | 56.4 | 179.1 | – |
